Test results: ChEMBL document CHEMBL4184237, “Cytotoxic oligophenols from the rhizome of Wikstroemia indica” (Bioorg Med Chem Lett, 2018)

Columns and labels:
SW480 [1] = test: Effect on GAPDH protein expression human SW480 cells assessed as GAPDH protein level incubated for 48 hrs by Western blot analysis relative to untreated control; type: ADME, cell-based; settings: sw480, 48 h
SW480 [2] = test: Induction of apoptosis in human SW480 cells assessed as Bax protein level incubated for 48 hrs by Western blot analysis relative to untreated control; type: functional
SW480 [3] = test: Induction of apoptosis in human SW480 cells assessed as viable cells level incubated for 48 hrs by Annexin V-FITC and PI double staining based flow cytometry (reference value: 93.2%); type: functional
T98G [4] = test: Induction of apoptosis in human T98G cells assessed as necrotic cells level incubated for 48 hrs by Annexin V-FITC and PI double staining based flow cytometry (reference value: 1.66%); type: functional
SW480 [5] = test: Induction of apoptosis in human SW480 cells assessed as necrotic cells level incubated for 48 hrs by Annexin V-FITC and PI double staining based flow cytometry (reference value: 1.17%); type: functional
HCT-116 = test: Cytotoxicity against human HCT116 cells assessed as reduction in cell viability incubated for 24 hrs by CCK8 assay; type: functional, cell-based; settings: HCT-116, 24 h
T98G [6] = test: Induction of apoptosis in human T98G cells assessed as viable cells level incubated for 48 hrs by Annexin V-FITC and PI double staining based flow cytometry (reference value: 91.3%); type: functional
T98G [7] = test: Induction of apoptosis in human T98G cells assessed as Bax protein level incubated for 48 hrs by Western blot analysis relative to untreated control; type: functional
SW480 [8] = test: Induction of apoptosis in human SW480 cells assessed as late apoptotic cells level incubated for 48 hrs by Annexin V-FITC and PI double staining based flow cytometry (reference value: 2.09%); type: functional
T98G [9] = test: Induction of apoptosis in human T98G cells assessed as Bcl-xL protein level incubated for 48 hrs by Western blot analysis relative to untreated control; type: functional
T98G [10] = test: Effect on GAPDH protein expression human T98G cells assessed as GAPDH protein level incubated for 48 hrs by Western blot analysis relative to untreated control; type: ADME, cell-based
SW480 [11] = test: Induction of apoptosis in human SW480 cells assessed as early apoptotic cells level incubated for 48 hrs by Annexin V-FITC and PI double staining based flow cytometry (reference value: 2.75%); type: functional
U-87 MG = test: Cytotoxicity against human U87 cells assessed as reduction in cell viability incubated for 24 hrs by CCK8 assay; type: functional, cell-based, U-87MG ATCC
T98G [12] = test: Induction of apoptosis in human T98G cells assessed as late apoptotic cells level incubated for 48 hrs by Annexin V-FITC and PI double staining based flow cytometry (reference value: 5.35%); type: functional
T98G [13] = test: Induction of apoptosis in human T98G cells assessed as early apoptotic cells level incubated for 48 hrs by Annexin V-FITC and PI double staining based flow cytometry (reference value: 1.79%); type: functional
T98G [14] = test: Cytotoxicity against human T98G cells assessed as reduction in cell viability incubated for 24 hrs by CCK8 assay; type: functional, cell-based
SW480 [15] = test: Cytotoxicity against human SW480 cells assessed as reduction in cell viability incubated for 24 hrs by CCK8 assay; type: functional, cell-based; settings: SW480, 24 h
SW480 [16] = test: Induction of apoptosis in human SW480 cells assessed as Bcl-xL protein level incubated for 48 hrs by Western blot analysis relative to untreated control; type: functional

| fold change (FC) (SW480 [1]) | fold change (FC) (T98G [10]) | SMILES | fold change (FC) (SW480 [2]) | Activity (SW480 [3]) | Activity (T98G [4]) | Activity (SW480 [5]) | IC50 (HCT-116) | Activity (T98G [6]) | fold change (FC) (T98G [7]) | Activity (SW480 [8]) | fold change (FC) (T98G [9]) | Activity (SW480 [11]) | IC50 (U-87 MG) | Activity (T98G [12]) | Activity (T98G [13]) | IC50 (T98G [14]) | IC50 (SW480 [15]) | fold change (FC) (SW480 [16]) |
| --- | --- | --- | --- | --- | --- | --- | --- | --- | --- | --- | --- | --- | --- | --- | --- | --- | --- | --- |
| 1 | 1 | O=c1c(-c2c(O)cc3c(c2O)C[C@H](O)[C@H](c2ccc(O)c(O)c2)O3)c(-c2ccc(O)cc2)oc2cc(O)cc(O)c12 | 1.9 | 64.8% | 1.55% | 2.87% | 87.6 µM | 79.4% | 4.1 | 13.7% | 0.4 | 18.5% | 88.4 µM | 15% | 4.11% | 83.5 µM | 71 µM | 0.6 |
|  |  | CC(=O)O[C@H]1C(=O)[C@@]2(C)[C@H]([C@H](OC(=O)c3ccccc3)[C@]3(O)C[C@H](OC(=O)[C@H](O)[C@@H](NC(=O)c4ccccc4)c4ccccc4)C(C)=C1C3(C)C)[C@]1(OC(C)=O)CO[C@@H]1C[C@@H]2O [PACLITAXEL] |  | 33.6% | 3.23% | 1.13% |  | 25.6% |  | 14.7% |  | 45.6% | 4.67 µM | 56.2% | 15% | 0.74 µM | 0.19 µM |  |
| 0.9 | 1 | O=c1c(-c2c(O)cc3c(c2O)C[C@@H](O)[C@H](c2ccc(O)cc2)O3)c(-c2ccc(O)cc2)oc2cc(O)cc(O)c12 | 2.3 | 51.6% | 1.36% | 1.31% | 24.4 µM | 62.9% | 3.4 | 12.9% | 0.7 | 34.2% | 35.7 µM | 25.4% | 10.3% | 30.6 µM | 17.9 µM | 0.8 |
|  |  | O=c1ccc2ccc(Oc3cc4ccc(O[C@@H]5O[C@H](CO)[C@@H](O)[C@H](O)[C@H]5O)c(-c5c(O)ccc6ccc(=O)oc56)c4oc3=O)cc2o1 |  |  |  |  | > 100 µM |  |  |  |  |  | > 100 µM |  |  | > 100 µM | > 100 µM |  |
| 1 | 0.9 | O=c1c(-c2c(O)cc3c(c2O)C[C@@H](O)[C@@H](c2ccc(O)c(O)c2)O3)c(-c2ccc(O)cc2)oc2cc(O)cc(O)c12 | 2.4 | 68.1% | 1.15% | 0.909% | 28.7 µM | 63.9% | 3.8 | 9.3% | 0.7 | 21.7% | 32.5 µM | 17.2% | 17.8% | 27.3 µM | 30.4 µM | 0.7 |
